Experimental data: patent publication US20090325923A1, “NEW METHOD FOR THE TREATMENT OF INFLAMMATORY DISEASES” (TOPOTARGET SWITZERLAND SA, priority 2006, published 2009)

Columns and labels:
RAW264.7 cell line = experiment: LPS-stimulated TNF secretion by ELISA in RAW264.7 cells; type: cell-based, mouse
Method: The murine RAW264.7 cell line was stimulated with LPS in the presence of FK866. TNF protein concentrations were determined by ELISA (above panel) while mRNA levels were determined by RT-PCR (below panel).
(§1) (A) The mouse macrophage cell line RAW264.7 was cultured overnight with increasing doses of FK866, and then stimulated with LPS for 2 h. The culture supernatants were tested for TNF content by ELISA and intracellular NAD levels were measured by an enzymatic assay.
(§2) (B) RAW264.7 cells were cultured overnight in the presence of FK866 and the intracellular pool of NAD was restored by co-incubation of the cells with nicotinic acid (NA). Cells were then stimulated with LPS for 2 h and the culture supernatant was tested for TNF content by ELISA.
(C) RAW264.7 cells were cultured overnight in the presence of FK866 and NAD levels were maintained by culturing the cells in the presence of extracellular NAD. Cells were then stimulated with LPS for 2 h and the culture supernatant was tested for TNF content by ELISA.
This example illustrates that FK866 inhibits TNFα secretion at a posttranscriptional level. The murine RAW 264.7 cell line was incubated in the presence of graded doses of FK866, stimulated with microbial products, and levels of TNFα released in the supernatant evaluated by ELISA.
as §1, with “This example illustrates the correlation between proinflammatory cytokine secretion and NAD levels in the cell.” for “(A)”
as §2, with “In another experiment,” for “(B)”, “nicotinic acid. Nicotinic” for “nicotinic”, “is a precursor of NAD, but its transformation into NAD is not dependent upon NMPRT and is thus not inhibited by FK866.” for “(NA).”
In another experiment, RAW264.7 cells were cultured overnight in the presence of FK866 and NAD levels were maintained by culturing the cells in the presence: of extra-cellular NAD. Cells were then stimulated with LPS for 2 h and the culture supernatant was tested for TNF content by ELISA.

[1] = tested on: collagen-induced arthritis; experiment: Collagen-induced arthritis (CIA) mouse model; type: in vivo
TNFα = experiment: Serum TNFα after LPS challenge (endotoxemia); type: in vivo, mouse; conditions: 10 mg/kg ip 7 h before ip LPS, bled 90 min later, vs placebo
Method: (§3) Mice were treated with thioglycollate to elicit PEC, and then received 10 mg/kg FK866 or placebo by ip injection 7 h before ip challenge with LPS. Mean serum TNFα at 90 min+sem of 3 mice per group is shown. PEC were obtained by lavage and intracellular NAD was determined. Data are mean±sem of 3 mice per group.
(§4) This example illustrates that NAMPT inhibition reduces circulating TNFα during endotoxemia and correlates with diminished intracellular NAD in inflammatory cells. Naïve mice were treated ip with thioglycollate to elicit inflammatory cells, and then were treated ip with placebo or 10 mg/kg FK866 7 h before an intraperitoneal injection of LPS. Mice were bled 90 min later for evaluation of serum TNFα levels.

[2] = Toxicity and tolerability in treated CIA mice (weight, histopathology, ALT, hematology); type: in vivo, mouse
Method: Test mice (n=20) were twice daily treated ip with 10 mg/kg of FK866 from the first day onward of appearance of clinical arthritis (clinical score>1) during 14 days. Placebo mice (n=20) received vehicle only. Groups of animals were compared with respect to variation of their clinical scoring, and of their weight (d) by statistical analysis using the two-way ANOVA. A semi-quantitative histological evaluation was performed on the knee sections using a 4 points (0-3) scoring system to evaluate inflammatory infiltrate and synovial hyperplasia. (c) Circulating SAA levels: Sera from placebo- and FK866-treated CIA mice at day 14 (n=8 and n=7, respectively) were prepared and analyzed by SAA ELISA according to the manufacturer's instructions.

[3] = tested on: Peritoneal exudates cells (PEC); experiment: Intracellular NAD in thioglycollate-elicited peritoneal exudate cells in vivo; set-up: species or system mouse
Method: Mice were treated with thioglycollate to elicit PEC, and then received 10 mg/kg FK866 by ip injection. PEC were obtained by lavage after different time points and intracellular NAD was determined. Data are mean±sem of 3 mice per group.
as §3
This example illustrates that FK866 reduces intracellular NAD level in inflammatory cells in vivo. Naïve mice were treated ip with thioglycollate to elicit inflammatory cells, and then FK866 was administered ip at 10 mg/kg. Peritoneal exudates cells (PEC) were obtained by lavage at different time points after treatment, and intracellular NAD levels were determined using an enzymatic assay.
as §4

[4] = 10 mg/kg ip twice daily, 14 days, 0-3 histological score, vs placebo
[5] = CIA mice, end of the experiment

**Q.** For `O=C(/C=C/c1cccnc1)NCCCCC1CCN(C(=O)c2ccccc2)CC1` [FK866, (E)-N-[4-(1-benzoylpiperidin-4-yl)butyl]-3-(pyridine-3-yl)-acrylamide], which TNFα secretion (RAW264.7 cell line; RAW 264.7, graded doses of FK866, stimulated with LPS, ELISA) is on record?
**A.** Its TNFα secretion is “strongly inhibited”.

**Q.** What about the TNF production (RAW264.7 cell line; RAW264.7, overnight increasing doses of FK866, LPS 2 h) of the same compound?
**A.** Its TNF production is “inhibition of TNF production”.

**Q.** And the “inflammatory infiltrate in knee joint sections” value [1, 4]?
**A.** Its value is “statistically significant decrease”.

**Q.** And the “synovial hyperplasia in knee joint sections” value [1, 4]?
**A.** The value was “statistically significant decrease”.

**Q.** What about the “histology of knees and paws” value ([1]; 10 mg/kg ip twice daily, 14 days, vs placebo) of the same compound?
**A.** Its value is “much less inflammation”.

**Q.** What about the paw inflammation ([1]; 10 mg/kg ip twice daily, after 2 weeks of treatment, vs placebo) of the same compound?
**A.** The paw inflammation was “minimal signs of inflammation”.

**Q.** What about the “effect on established CIA (dose-response)” value ([1]; 2, 5 or 10 mg/kg ip twice daily for 15 days) of the same compound?
**A.** The value was “marked protective dose-dependent effect”.

**Q.** And the “IL-1β in paw tissue extracts” value [1, 5]?
**A.** Its value is “significantly reduced”.

**Q.** What about the “IL-6 in paw tissue extracts” value [1, 5] of the same compound?
**A.** The value was “significantly reduced”.

**Q.** And the “IL-10 secretion in paw tissue extracts” value [1, 5]?
**A.** Its value is “remained unchanged”.

**Q.** And the “MCP-1 in paw tissue extracts” value [1, 5]?
**A.** The value was “decreased”.

**Q.** And the “symptoms of arthritis (clinical score)” value ([1]; DBA/1 mice, 10 mg/kg ip twice daily for 15 days from clinical score ≧1)?
**A.** Its value is “ameliorates the symptoms of arthritis”.

**Q.** What about the “severity of arthritis in CIA mice” value ([1]; FK866 10 mg/kg ip twice daily or etanercept 15 mg/kg every three days, over 15 days) of the same compound?
**A.** The value was “activity similar to etanercept”.

**Q.** What about the “time until beneficial effect apparent after commencement of treatment” value ([1]; established CIA) of the same compound?
**A.** The value was ≤ 10 days.

**Q.** What about the “dose of maximal therapeutic effect on CIA” value ([1]; ip twice daily for 15 days) of the same compound?
**A.** Its value is 10 mg/kg.

**Q.** What about the “Serum amyloid A protein (SAA) levels” value ([1]; sera of CIA mice at day 14, ELISA, vs placebo) of the same compound?
**A.** The value was “decreased”.

**Q.** What about the “circulating (serum) TNFα levels” value (TNFα) of the same compound?
**A.** Its value is “significant decrease”.

**Q.** What about the tolerability ([2]; CIA mice, 10 mg/kg ip twice daily) of the same compound?
**A.** Its tolerability is “well tolerated”.

**Q.** What about the signs of toxicity ([2]; CIA mice, 10 mg/kg ip twice daily, 14 days) of the same compound?
**A.** Its signs of toxicity is “no signs of toxicity”.

**Q.** What about the “% LYMPHO, mean” value ([2]; hematology of treated CIA mice) of the same compound?
**A.** Its value is 60%.

**Q.** And the “% MONO, mean” value ([2]; hematology of treated CIA mice)?
**A.** Its value is 10.4%.

**Q.** What about the “% NEUTRO, mean” value ([2]; hematology of treated CIA mice) of the same compound?
**A.** Its value is 29.7%.

**Q.** What about the “HCT, mean” value ([2]; hematology of treated CIA mice) of the same compound?
**A.** Its value is 52.8%.

**Q.** What about the “HGB, mean” value ([2]; hematology of treated CIA mice) of the same compound?
**A.** Its value is 14.1 g/dL.

**Q.** And the “PLT, mean” value ([2]; hematology of treated CIA mice)?
**A.** The value was 1688 10^3/mm^3.

**Q.** And the “RBC, mean” value ([2]; hematology of treated CIA mice)?
**A.** Its value is 9.4 10^3/mm^3.

**Q.** What about the “WBC, mean” value ([2]; hematology of treated CIA mice) of the same compound?
**A.** Its value is 11.5 10^6/mm^3.

**Q.** And the “weight of the mice” value ([2]; placebo- vs FK866-treated groups)?
**A.** The value was “comparable”.

**Q.** And the premature death ([2]; treated group)?
**A.** Its premature death is “no premature death”.

**Q.** And the hematological examination ([2]; treated vs control mice)?
**A.** Its hematological examination is “similarity between the treated and control mice”.

**Q.** And the “histopathology of liver, spleen, lung, gut, kidney, inguinal lymph nodes and brain” value ([2]; vs control animals)?
**A.** The value was “no different from control animals”.

**Q.** What about the “time of NAD nadir after injection” value ([3]; 10 mg/kg ip) of the same compound?
**A.** The value was 9 h.

**Q.** And the “time of NAD recovery after injection” value ([3]; 10 mg/kg ip)?
**A.** The value was “around 14 h”.

**Q.** And the “intracellular NAD in PECs” value ([3]; 10 mg/kg ip 7 h before ip LPS, same mice, vs placebo)?
**A.** The value was “significant decrease”.

**Q.** What about the “intracellular NAD in PEC (macrophages) in vivo” value ([3]; 10 mg/kg ip, lavage at different time points) of the same compound?
**A.** Its value is “significant time-dependent NAD depletion”.
